Laboratory results taken from patent US20260062422A1 (Halda Therapeutics OpCo, Inc., priority 2022, published 2026).

Key:
VCaP cells = experiment: Cellular growth inhibition assay for VCaP cells, CellTiter-Glo; assay type: cell-based, human; conditions: Homo sapiens, VCaP, 72 h, 72 hours treatment, CellTiter-Glo 2.0
Summary of the method: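 GI50 values come from four-parameter curve fits of luminescence data normalized to a zero baseline. Compound, in medium with 0.5% DMSO, was added one day after plating and left for 72 h before CellTiter-Glo 2.0 addition.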

T47D cells = experiment: Cellular growth inhibition assay for T47D cells, CellTiter-Glo; assay type: cell-based, human; conditions: Homo sapiens, T47D, 72 h, 72 hours treatment, CellTiter-Glo 2.0 cell viability
Summary of the method: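 Growth inhibition as GI50, fitted with four parameters to CellTiter-Glo luminescence after 72 h of compound exposure (0.5% DMSO). Cells were T47D, grown in insulin-supplemented (0.2 units/mL) DMEM with 10% FBS and treated one day post-seeding.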

[1] = tested on: T-Rex 293 cell line SC3 cells lacking increased expression of androgen receptor protein; experiment: Cellular growth inhibition, T-Rex 293 SC3 cells without doxycycline, CellTiter-Glo; assay type: cell-based; conditions: 72 h, T-Rex 293 SC3 cells not exposed to doxycycline, CellTiter-Glo 2.0
Summary of the method: (§1)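 Doxycycline-inducible androgen receptor T-Rex 293 clone SC3, seeded at 2500/well in phenol red-free DMEM with 10% charcoal-dextran FBS, without doxycycline or with 10 ng/mL to induce receptor. Compound added after 24 h (0.5% DMSO), 72 h at 37 °C; CellTiter-Glo 2.0 luminescence, GI50 by four-parameter fit.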

[2] = tested on: T-Rex 293 cell line SC3 cells having increased expression of androgen receptor protein due to exposure to doxycycline; experiment: Cellular growth inhibition, T-Rex 293 SC3 cells with doxycycline (androgen receptor induced), CellTiter-Glo; assay type: cell-based; conditions: 72 h, T-Rex 293 SC3 cells with 10 ng/mL doxycycline (increased androgen receptor expression)
Summary of the method: as §1

Cc1sc2c(c1C)C(c1ccc(O[C@H]3CC[C@]4(CCN(c5ncc(C(=O)N[C@H]6C(C)(C)[C@H](Oc7ccc(C#N)c(Cl)c7)C6(C)C)cn5)C4)C3)cc1)=N[C@@H](Cc1ncco1)c1nnc(C)n1-2 [Compound I-175]
GI50 (VCaP cells): < 500 nM
GI50 (T47D cells): 500 to 1500 nM
GI50 [1]: < 500 nM
GI50 [2]: < 500 nM

Cc1sc2c(c1C)C(c1ccc(O[C@H]3CC[C@@]4(CCN(c5ncc(C(=O)N[C@H]6C(C)(C)[C@H](Oc7ccc(C#N)c(Cl)c7)C6(C)C)cn5)C4)C3)cc1)=N[C@@H](Cc1ncco1)c1nnc(C)n1-2 [Compound I-176]
GI50 (VCaP cells): < 500 nM
GI50 (T47D cells): < 500 nM
GI50 [1]: 500 to 1500 nM
GI50 [2]: < 500 nM

Cc1sc2c(c1C)C(c1ccc(O[C@@H]3CCC4(CCN(c5ncc(C(=O)N[C@H]6C(C)(C)[C@H](Oc7ccc(C#N)c(Cl)c7)C6(C)C)cn5)C4)C3)cc1)=N[C@@H](Cc1ncco1)c1nnc(C)n1-2 (stereo partly drawn) [Compound I-177]
GI50 (VCaP cells): < 500 nM
GI50 (T47D cells): < 500 nM
GI50 [1]: < 500 nM
GI50 [2]: < 500 nM

Cc1sc2c(c1C)C(c1ccc(O[C@H]3CC[C@]4(CCN(c5ncc(C(=O)N[C@H]6C(C)(C)[C@H](Oc7ccc(C#N)c(Cl)c7)C6(C)C)cn5)C4)CC3)cc1)=N[C@@H](Cc1ncco1)c1nnc(C)n1-2 [Compound I-178]
GI50 (VCaP cells): < 500 nM
GI50 (T47D cells): < 500 nM
GI50 [1]: < 500 nM
GI50 [2]: < 500 nM

Cc1sc2c(c1C)C(c1ccc(O[C@H]3CC[C@@]4(CCN(c5ncc(C(=O)N[C@H]6C(C)(C)[C@H](Oc7ccc(C#N)c(Cl)c7)C6(C)C)cn5)C4)CC3)cc1)=N[C@@H](Cc1ncco1)c1nnc(C)n1-2 [Compound I-179]
GI50 (VCaP cells): < 500 nM
GI50 (T47D cells): 500 to 1500 nM
GI50 [1]: < 500 nM
GI50 [2]: < 500 nM

Cc1sc2c(c1C)C(c1ccc(O[C@H]3CCC4(C3)CN(c3ncc(C(=O)N[C@H]5C(C)(C)[C@H](Oc6ccc(C#N)c(Cl)c6)C5(C)C)cn3)C4)cc1)=N[C@@H](Cc1ncco1)c1nnc(C)n1-2 [Compound I-180]
GI50 (VCaP cells): < 500 nM
GI50 (T47D cells): < 500 nM
GI50 [1]: < 500 nM
GI50 [2]: < 500 nM

Cc1sc2c(c1C)C(c1ccc(O[C@H]3COC4(C3)CN(c3ncc(C(=O)N[C@H]5C(C)(C)[C@H](Oc6ccc(C#N)c(Cl)c6)C5(C)C)cn3)C4)cc1)=N[C@@H](Cc1ncco1)c1nnc(C)n1-2 [Compound I-181]
GI50 (VCaP cells): < 500 nM
GI50 (T47D cells): < 500 nM
GI50 [1]: < 500 nM
GI50 [2]: < 500 nM

Cc1sc2c(c1C)C(c1ccc(O[C@@H]3COC4(C3)CN(c3ncc(C(=O)N[C@H]5C(C)(C)[C@H](Oc6ccc(C#N)c(Cl)c6)C5(C)C)cn3)C4)cc1)=N[C@@H](Cc1ncco1)c1nnc(C)n1-2 [Compound I-182]
GI50 (VCaP cells): < 500 nM
GI50 (T47D cells): < 500 nM
GI50 [1]: < 500 nM
GI50 [2]: < 500 nM

Cc1sc2c(c1C)C(c1ccc(O[C@H]3CCOC34CN(c3ncc(C(=O)N[C@H]5C(C)(C)[C@H](Oc6ccc(C#N)c(Cl)c6)C5(C)C)cn3)C4)cc1)=N[C@@H](Cc1ncco1)c1nnc(C)n1-2 [Compound I-183]
GI50 (VCaP cells): < 500 nM
GI50 (T47D cells): 500 to 1500 nM
GI50 [1]: < 500 nM
GI50 [2]: < 500 nM

Cc1sc2c(c1C)C(c1ccc(O[C@@H]3CCOC34CN(c3ncc(C(=O)N[C@H]5C(C)(C)[C@H](Oc6ccc(C#N)c(Cl)c6)C5(C)C)cn3)C4)cc1)=N[C@@H](Cc1ncco1)c1nnc(C)n1-2 [Compound I-184]
GI50 (VCaP cells): < 500 nM
GI50 (T47D cells): < 500 nM
GI50 [1]: < 500 nM
GI50 [2]: < 500 nM

Cc1sc2c(c1C)C(c1ccc(O[C@@H]3COC4(CCN(c5ncc(C(=O)N[C@H]6C(C)(C)[C@H](Oc7ccc(C#N)c(Cl)c7)C6(C)C)cn5)C4)C3)cc1)=N[C@@H](Cc1ncco1)c1nnc(C)n1-2 (stereo partly drawn) [Compound I-185]
GI50 (VCaP cells): < 500 nM
GI50 (T47D cells): < 500 nM
GI50 [1]: < 500 nM
GI50 [2]: < 500 nM

Cc1sc2c(c1C)C(c1ccc(O[C@H]3CO[C@@]4(CCCN(c5ncc(C(=O)N[C@H]6C(C)(C)[C@H](Oc7ccc(C#N)c(Cl)c7)C6(C)C)cn5)C4)C3)cc1)=N[C@@H](Cc1ncco1)c1nnc(C)n1-2 [Compound I-186]
GI50 (VCaP cells): < 500 nM
GI50 (T47D cells): 500 to 1500 nM
GI50 [1]: < 500 nM
GI50 [2]: < 500 nM

Cc1sc2c(c1C)C(c1ccc(O[C@@H]3CO[C@]4(CCCN(c5ncc(C(=O)N[C@H]6C(C)(C)[C@H](Oc7ccc(C#N)c(Cl)c7)C6(C)C)cn5)C4)C3)cc1)=N[C@@H](Cc1ncco1)c1nnc(C)n1-2 [Compound I-187]
GI50 (VCaP cells): < 500 nM
GI50 (T47D cells): < 500 nM
GI50 [1]: < 500 nM
GI50 [2]: < 500 nM

Cc1sc2c(c1C)C(c1ccc(O[C@@H]3CO[C@@]4(CCCN(c5ncc(C(=O)N[C@H]6C(C)(C)[C@H](Oc7ccc(C#N)c(Cl)c7)C6(C)C)cn5)C4)C3)cc1)=N[C@@H](Cc1ncco1)c1nnc(C)n1-2 [Compound I-188]
GI50 (VCaP cells): < 500 nM
GI50 (T47D cells): < 500 nM
GI50 [1]: < 500 nM
GI50 [2]: < 500 nM

Cc1sc2c(c1C)C(c1ccc(OC3CC(CC4CCN(c5ncc(C(=O)N[C@H]6C(C)(C)[C@H](Oc7ccc(C#N)c(Cl)c7)C6(C)C)cn5)CC4)C3)cc1)=N[C@@H](Cc1ncco1)c1nnc(C)n1-2 (stereo partly drawn) [Compound I-189]
GI50 (VCaP cells): < 500 nM
GI50 (T47D cells): < 500 nM
GI50 [1]: > 3000 nM
GI50 [2]: < 500 nM

Cc1sc2c(c1C)C(c1ccc(O[C@H]3C[C@H](OC4CCN(c5ncc(C(=O)N[C@H]6C(C)(C)[C@H](Oc7ccc(C#N)c(Cl)c7)C6(C)C)cn5)CC4)C3)cc1)=N[C@@H](Cc1ncco1)c1nnc(C)n1-2 [Compound I-190]
GI50 (VCaP cells): < 500 nM
GI50 (T47D cells): < 500 nM
GI50 [1]: > 3000 nM
GI50 [2]: < 500 nM

Cc1sc2c(c1C)C(c1ccc(O[C@@H]3CCC4(C3)CN(c3ncc(C(=O)N[C@H]5C(C)(C)[C@H](Oc6ccc(C#N)c(Cl)c6)C5(C)C)cn3)C4)cc1)=N[C@@H](Cc1ncco1)c1nnc(C)n1-2 [Compound I-191]
GI50 (VCaP cells): < 500 nM
GI50 (T47D cells): < 500 nM
GI50 [1]: < 500 nM
GI50 [2]: < 500 nM

Cc1sc2c(c1C)C(c1ccc(O[C@H]3CO[C@]4(CCCN(c5ncc(C(=O)N[C@H]6C(C)(C)[C@H](Oc7ccc(C#N)c(Cl)c7)C6(C)C)cn5)C4)C3)cc1)=N[C@@H](Cc1ncco1)c1nnc(C)n1-2 [Compound I-192]
GI50 (VCaP cells): 500 to 1500 nM
GI50 (T47D cells): 500 to 1500 nM
GI50 [1]: 500 to 1500 nM
GI50 [2]: < 500 nM

Cc1sc2c(c1C)C(c1ccc(O[C@H]3C[C@@]4(CCCN(c5ncc(C(=O)N[C@H]6C(C)(C)[C@H](Oc7ccc(C#N)c(Cl)c7)C6(C)C)cn5)C4)C3)cc1)=N[C@@H](Cc1ncco1)c1nnc(C)n1-2 [Compound I-193]
GI50 (VCaP cells): 500 to 1500 nM
GI50 (T47D cells): < 500 nM
GI50 [1]: 500 to 1500 nM
GI50 [2]: < 500 nM

Cc1sc2c(c1C)C(c1ccc(O[C@H]3C[C@]4(CCCN(c5ncc(C(=O)N[C@H]6C(C)(C)[C@H](Oc7ccc(C#N)c(Cl)c7)C6(C)C)cn5)C4)C3)cc1)=N[C@@H](Cc1ncco1)c1nnc(C)n1-2 [Compound I-194]
GI50 (VCaP cells): < 500 nM
GI50 (T47D cells): 500 to 1500 nM
GI50 [1]: < 500 nM
GI50 [2]: < 500 nM

Cc1sc2c(c1C)C(c1ccc(O[C@H]3COC4(CCN(c5ncc(C(=O)N[C@H]6C(C)(C)[C@H](Oc7ccc(C#N)c(Cl)c7)C6(C)C)cn5)C4)C3)cc1)=N[C@@H](Cc1ncco1)c1nnc(C)n1-2 (stereo partly drawn) [Compound I-195]
GI50 (VCaP cells): < 500 nM
GI50 (T47D cells): < 500 nM
GI50 [1]: < 500 nM
GI50 [2]: < 500 nM

Cc1sc2c(c1C)C(c1ccc(OC3CC4(CCN(c5ccc(C(=O)N[C@H]6C(C)(C)[C@H](Oc7ccc(C#N)c(Cl)c7)C6(C)C)cc5)CC4)C3)cc1)=N[C@@H](Cc1ncco1)c1nnc(C)n1-2 [Compound I-196]
GI50 (VCaP cells): 500 to 1500 nM
GI50 (T47D cells): < 500 nM
GI50 [1]: > 3000 nM
GI50 [2]: < 500 nM

Cc1sc2c(c1C)C(c1ccc(OC3CC4(C3)CN(c3ncc(C(=O)N[C@H]5C(C)(C)[C@H](Oc6ccc(C#N)c(Cl)c6)C5(C)C)cn3)C4)cc1)=N[C@H](Cc1ncco1)c1nnc(C)n1-2 [Compound I-199]
GI50 (VCaP cells): < 500 nM
GI50 (T47D cells): < 500 nM
GI50 [1]: < 500 nM
GI50 [2]: < 500 nM

Cc1sc2c(c1C)C(c1ccc(O[C@H]3CCC4(CCCN(c5ncc(C(=O)N[C@H]6C(C)(C)[C@H](Oc7ccc(C#N)c(Cl)c7)C6(C)C)cn5)C4)C3)cc1)=N[C@@H](Cc1ncco1)c1nnc(C)n1-2 (stereo partly drawn) [Compound I-200]
GI50 (VCaP cells): < 500 nM
GI50 (T47D cells): 500 to 1500 nM
GI50 [1]: 500 to 1500 nM
GI50 [2]: < 500 nM

Cc1sc2c(c1C)C(c1ccc(O[C@@H]3CC[C@@]4(CCCN(c5ncc(C(=O)N[C@H]6C(C)(C)[C@H](Oc7ccc(C#N)c(Cl)c7)C6(C)C)cn5)C4)C3)cc1)=N[C@@H](Cc1ncco1)c1nnc(C)n1-2 [Compound I-201]
GI50 (VCaP cells): < 500 nM
GI50 (T47D cells): < 500 nM
GI50 [1]: > 3000 nM
GI50 [2]: < 500 nM

Cc1sc2c(c1C)C(c1ccc(O[C@@H]3CC[C@]4(CCCN(c5ncc(C(=O)N[C@H]6C(C)(C)[C@H](Oc7ccc(C#N)c(Cl)c7)C6(C)C)cn5)C4)C3)cc1)=N[C@@H](Cc1ncco1)c1nnc(C)n1-2 [Compound I-202]
GI50 (VCaP cells): < 500 nM
GI50 (T47D cells): 500 to 1500 nM
GI50 [1]: > 3000 nM
GI50 [2]: < 500 nM

Cc1sc2c(c1C)C(c1ccc(OC[C@H]3CC[C@@]4(CCCN(c5ncc(C(=O)N[C@H]6C(C)(C)[C@H](Oc7ccc(C#N)c(Cl)c7)C6(C)C)cn5)C4)C3)cc1)=N[C@@H](Cc1ncco1)c1nnc(C)n1-2 [Compound I-203]
GI50 (VCaP cells): < 500 nM
GI50 (T47D cells): < 500 nM
GI50 [1]: > 3000 nM
GI50 [2]: < 500 nM
